Where two headings read alike, the source gives them in different places.

Assay type in all cases: biochemical
One assay addresses T1, MKP-1 (Homo sapiens, UniProt P28562).
T1 sequence (P28562 1-367): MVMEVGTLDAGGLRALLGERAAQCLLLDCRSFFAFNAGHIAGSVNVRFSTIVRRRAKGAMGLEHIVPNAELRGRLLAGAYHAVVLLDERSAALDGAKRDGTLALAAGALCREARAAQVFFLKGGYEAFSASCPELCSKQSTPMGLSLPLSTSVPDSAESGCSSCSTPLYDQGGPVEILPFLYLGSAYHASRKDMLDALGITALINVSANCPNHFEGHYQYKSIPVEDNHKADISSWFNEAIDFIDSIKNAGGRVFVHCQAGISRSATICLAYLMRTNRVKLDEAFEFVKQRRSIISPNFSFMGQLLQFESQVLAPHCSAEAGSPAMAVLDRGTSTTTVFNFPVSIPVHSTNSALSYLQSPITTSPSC
Description: PTP-catalyzed hydrolysis of DiFMUP, IC50 determination (MKP-1). Here is the method: The PTP-catalyzed hydrolysis of 6,8-difluoro-4-methylumbelliferyl phosphate (DiFMUP) in the presence of the test compound is assayed at 30° C. in a 60 μL 96 well format reaction system in 0.15 M Bis-Tris, pH 6.0 assay buffer having an ionic strength of 150 mM (adjusted with NaCl) and containing 1 mM dithiotreitol and 5% DMSO. […] The nonenzymatic hydrolysis of the substrate was corrected by measuring the control without addition of enzyme. The IC50 value was determined by plotting the relative activity versus inhibitor concentrations and fitting to Equation 1 using the software GraphPad Prism™ (GraphPad Software, Inc.).
(§1) [formula] In this case, Vi, is the reaction velocity when the inhibitor concentration is [I], V0 is the reaction velocity with no inhibitor and IC50=Ki+Ki[S]/Km.

For another assay, the target named is T2, HePTP (Homo sapiens, UniProt P35236).
T2 sequence (P35236 1-360): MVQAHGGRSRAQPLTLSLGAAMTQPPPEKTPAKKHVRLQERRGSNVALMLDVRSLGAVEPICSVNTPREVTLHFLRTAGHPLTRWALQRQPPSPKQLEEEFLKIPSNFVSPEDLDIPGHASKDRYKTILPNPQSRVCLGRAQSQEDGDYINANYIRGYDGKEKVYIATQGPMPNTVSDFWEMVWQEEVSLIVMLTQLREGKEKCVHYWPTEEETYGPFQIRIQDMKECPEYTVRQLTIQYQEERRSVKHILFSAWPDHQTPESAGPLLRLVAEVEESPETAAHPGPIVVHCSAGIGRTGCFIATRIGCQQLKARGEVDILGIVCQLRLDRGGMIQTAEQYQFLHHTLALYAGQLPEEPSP
The experiment in a line: PTP-catalyzed hydrolysis of DiFMUP, IC50 determination (HePTP). Here is the method: (§2) The PTP-catalyzed hydrolysis of 6,8-difluoro-4-methylumbelliferyl phosphate (DiFMUP) in the presence of the test compound is assayed at 30° C. in a 60 μL 96 well format reaction system in 0.15 M Bis-Tris, pH 6.0 assay buffer having an ionic strength of 150 mM (adjusted with NaCl) and containing 1 mM dithiotreitol and 5% DMSO. At various concentrations of the compound, the initial rate at fixed DiFMUP concentration (equal to the corresponding Km value for each PTP) was determined using a FLx800 micro plate reader (Bio-Tek Instruments, Inc.), an excitation wave length of 360 nm and measuring the emission of the fluorescent reaction product 6,8-difluoro-7-hydroxy-4-methylcoumarin (DiFMU) at 460 nm. The nonenzymatic hydrolysis of the substrate was corrected by measuring the control without addition of enzyme. The IC50 value was determined by plotting the relative activity versus inhibitor concentrations and fitting to Equation 1 using the software GraphPad Prism™ (GraphPad Software, Inc.).
as §1

In another assay the target is T3, CD45 (Homo sapiens, UniProt P08575).
T3 sequence (P08575 26-1306): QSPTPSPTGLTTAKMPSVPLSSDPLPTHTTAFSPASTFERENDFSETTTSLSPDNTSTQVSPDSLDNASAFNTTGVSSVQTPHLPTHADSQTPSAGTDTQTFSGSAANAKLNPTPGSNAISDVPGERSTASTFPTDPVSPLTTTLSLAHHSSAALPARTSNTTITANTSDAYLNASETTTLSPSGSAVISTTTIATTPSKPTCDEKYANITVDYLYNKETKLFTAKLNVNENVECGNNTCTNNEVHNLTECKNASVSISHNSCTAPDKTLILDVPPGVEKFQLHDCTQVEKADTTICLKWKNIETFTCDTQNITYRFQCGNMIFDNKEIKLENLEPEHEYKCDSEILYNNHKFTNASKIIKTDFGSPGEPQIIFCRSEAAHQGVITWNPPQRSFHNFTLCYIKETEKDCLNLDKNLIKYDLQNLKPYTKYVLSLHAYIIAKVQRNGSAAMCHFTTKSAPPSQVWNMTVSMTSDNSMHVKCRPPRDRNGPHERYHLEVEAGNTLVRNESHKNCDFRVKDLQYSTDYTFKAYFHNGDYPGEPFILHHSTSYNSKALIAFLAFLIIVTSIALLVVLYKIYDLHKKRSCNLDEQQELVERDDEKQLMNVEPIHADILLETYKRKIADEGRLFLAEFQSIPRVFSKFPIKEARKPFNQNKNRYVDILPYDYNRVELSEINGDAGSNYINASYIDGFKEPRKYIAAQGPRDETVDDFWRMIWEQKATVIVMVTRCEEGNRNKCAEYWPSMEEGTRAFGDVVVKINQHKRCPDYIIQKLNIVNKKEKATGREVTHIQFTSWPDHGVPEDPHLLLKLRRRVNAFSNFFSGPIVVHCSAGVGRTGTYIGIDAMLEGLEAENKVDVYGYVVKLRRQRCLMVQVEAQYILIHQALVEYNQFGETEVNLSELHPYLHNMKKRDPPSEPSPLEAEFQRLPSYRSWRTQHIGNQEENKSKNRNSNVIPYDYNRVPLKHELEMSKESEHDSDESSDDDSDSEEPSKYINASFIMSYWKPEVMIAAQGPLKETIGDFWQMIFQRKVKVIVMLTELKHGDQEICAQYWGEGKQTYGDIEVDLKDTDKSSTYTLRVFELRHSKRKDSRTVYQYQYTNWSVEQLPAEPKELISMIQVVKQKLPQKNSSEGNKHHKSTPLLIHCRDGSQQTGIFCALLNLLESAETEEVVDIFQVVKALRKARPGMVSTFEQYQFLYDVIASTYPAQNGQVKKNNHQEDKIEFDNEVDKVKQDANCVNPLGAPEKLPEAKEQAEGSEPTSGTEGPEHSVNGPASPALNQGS
The experiment in a line: PTP-catalyzed hydrolysis of DiFMUP, IC50 determination (CD45). On the procedure:
as §2, §1

Where [1] appears, read: Table II, DiFMUP at Km, pH 6.0, 30° C.

`O=C1/C(=C/c2cn(-c3ccccc3)nc2-c2ccc(OCc3ccccc3)cc2)SC(=S)N1CCS(=O)(=O)O` [Compound 9]: the IC50 (usually the concentration that gives 50% inhibition) against MKP-1 (setting [1]) was determined as 779 nM; against HePTP it was 1520 nM; on CD45 (setting [1]) it was 609 nM.

For the compound `O=C1/C(=C/c2cn(-c3ccccc3)nc2-c2ccc(OCc3ccc(Cl)cc3)cc2)SC(=S)N1CCS(=O)(=O)O` [Compound 10, (Z)-2-[5-({3-[4-(4-chlorobenzyloxy)phenyl]-1-phenyl-1H-pyrazol-4-yl}methylene)-4-oxo-2-thioxothiazolidin-3-yl]ethane sulfonic acid], the concentration for half-maximal inhibition (IC50) against MKP-1 (setting [1]) is 457 nM; on HePTP (setting [1]), 622 nM; on CD45 (setting [1]) it was 460 nM.

As to `O=C1/C(=C/c2cn(-c3ccccc3)nc2-c2ccc(S(=O)(=O)N3CCOCC3)cc2)SC(=S)N1CCS(=O)(=O)O` [Compound 14], the figures for the IC50 on MKP-1, against HePTP and against CD45 were 474 nM, 1160 nM and 303 nM, respectively.
